Data from patent publication US20120083522A1, “MODULATION OF INFLAMMATORY RESPONSES BY FACTOR XI” (Isis Pharmaceuitcals, inc., priority 2009, published 2012).

Experiments:
human Factor XI mRNA [1] = assay: Dose-dependent inhibition in HepB3 cells, lipofectin (Example 7); type: cell-based; details: approx. 16 h
Procedure: Cells were plated at a density of 4,000 cells per well and transfected using lipofectin reagent with 2.3 nM, 4.7 nM, 9.4 nM, 18.75 nM, 37.5 nM, and 75 nM concentrations of antisense oligonucleotide, as specified in Table 14. After a treatment period of approximately 16 hours, RNA was isolated from the cells and human Factor XI mRNA levels were measured by quantitative real-time PCR. Human Factor XI primer probe set RTS 2966 was used to measure mRNA levels. Factor XI mRNA levels were adjusted according to total RNA content, as measured by RIBOGREEN®. Results are presented as percent inhibition of Factor XI, relative to untreated control cells.

[2] = Tolerability in Sprague-Dawley rats: body and organ weight (Example 19); type: in vivo; details: 50 mg/kg s.c. twice per week for 6 weeks, change over weight at start of study
Excerpt: (§1) Urine samples were taken before the start of treatment.
The body weights are presented in Table 78 and are expressed as a percent change over the weights taken at the start of the study.

human Factor XI mRNA [3] = assay: Dose-dependent inhibition in HepG2 cells, electroporation (Example 5); type: cell-based; details: approx. 16 h, relative to untreated control cells
Procedure: The gapmers were also transfected via electroporation and their dose dependent inhibition of human Factor XI mRNA was measured. Cells were plated at a density of 20,000 cells per well and transfected via electroporation with 625 nM, 1250 nM, 2500 nM, 5,000 nM, 10,000 nM, and 20,000 nM concentrations of antisense oligonucleotide, as specified in Table 12. After a treatment period of approximately 16 hours, RNA was isolated from the cells and human Factor XI mRNA levels were measured by quantitative real-time PCR. Human Factor XI primer probe set RTS 2966 was used to measure mRNA levels. Factor XI mRNA levels were adjusted according to total RNA content, as measured by RIBOGREEN®. Results are presented as percent inhibition of human Factor XI, relative to untreated control cells.

[4] = Tolerability in Sprague-Dawley rats: kidney function (Example 19); type: in vivo; details: Sprague Dawley rats; for urine protein/creatinine ratio, After: after 50 mg/kg s.c. twice per week for 6 weeks; for urine protein/creatinine ratio, Before: before antisense oligonucleotide treatment
Excerpt: as §1

human Factor XI mRNA [5] = assay: Dose-dependent inhibition in HepG2 cells, lipofectin (Example 4); type: cell-based; details: 16 hours
In short: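 HepG2 cells at 10,000 per well were lipofectin-transfected with 9.375, 18.75, 37.5 or 75 nM antisense oligonucleotide for about 16 h. Factor XI mRNA was quantified by real-time PCR (primer probe set RTS 2966) and normalised to RIBOGREEN total RNA. Values are percent inhibition versus untreated cells.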

human Factor XI mRNA [6] = assay: Dose-dependent inhibition in HepB3 cells, electroporation (Example 7); type: cell-based; details: approx. 16 h
Procedure: The gapmers were also transfected via electroporation and their dose dependent inhibition of human Factor XI mRNA was measured. Cells were plated at a density of 20,000 cells per well and transfected via electroporation with 41.15 nM, 123.457 nM, 370.37 nM, 1111.11 nM, 3333.33 nM, and 10,000 nM concentrations of antisense oligonucleotide, as specified in Table 15. After a treatment period of approximately 16 hours, RNA was isolated from the cells and human Factor XI mRNA levels were measured by quantitative real-time PCR. Human Factor XI primer probe set RTS 2966 was used to measure mRNA levels. Factor XI mRNA levels were adjusted according to total RNA content, as measured by RIBOGREEN®. Results are presented as percent inhibition of human Factor XI, relative to untreated control cells.

human Factor XI mRNA [7] = assay: Dose-dependent inhibition in cyno primary hepatocytes, electroporation (Example 6); type: cell-based, cynomolgus monkey; details: approx. 16 h
Procedure: Cells were plated at a density of 35,000 cells per well and transfected via electroporation with 0.74 nM, 2.2 nM, 6.7 nM, 20 nM, 60 nM, and 180 nM concentrations of antisense oligonucleotide, as specified in Table 13. After a treatment period of approximately 16 hours, RNA was isolated from the cells and human Factor XI mRNA levels were measured by quantitative real-time PCR. Human Factor XI primer probe set RTS 2966 was used to measure mRNA levels. Factor XI mRNA levels were adjusted according to total RNA content, as measured by RIBOGREEN®. Results are presented as percent inhibition of human Factor XI, relative to untreated control cells.

human Factor XI mRNA [8] = assay: Dose-dependent inhibition in HepG2 cells, electroporation (Example 4); type: cell-based; details: 16 hours
In short: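 HepG2 cells electroporated with 0.7, 2.2, 6.7 or 20 μM antisense gapmer and harvested after ~16 h. Factor XI mRNA quantified by qRT-PCR (primer probe set RTS 2966), normalised to total RNA (RIBOGREEN). Reported as percent inhibition versus untreated control cells.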

human Factor XI mRNA [9] = assay: Dose-dependent inhibition in HepG2 cells, lipofectin (Example 5); type: cell-based; details: 16 hours
Procedure: Cells were plated at a density of 10,000 cells per well and transfected using lipofectin reagent with 2.34 nM, 4.69 nM, 9.375 nM, 18.75 nM, 37.5 nM, and 75 nM concentrations of antisense oligonucleotide, as specified in Table 11. After a treatment period of approximately 16 hours, RNA was isolated from the cells and human Factor XI mRNA levels were measured by quantitative real-time PCR. Human Factor XI primer probe set RTS 2966 was used to measure mRNA levels. Factor XI mRNA levels were adjusted according to total RNA content, as measured by RIBOGREEN®. Results are presented as percent inhibition of human Factor XI, relative to untreated control cells.

## 416826 (antisense ATGCCCTTCATGTCTAGGTC; 5-10-5 gapmer, wing sugar chemistry not given here, further chemistry not given here) [compound 416826]
Human Factor XI mRNA [1]; 2.3 nM
  percent inhibition of human Factor XI mRNA: 16%
Human Factor XI mRNA [1]; 4.7 nM
  percent inhibition of human Factor XI mRNA: 28%
Human Factor XI mRNA [1]; 9.4 nM
  percent inhibition of human Factor XI mRNA: 38%
Human Factor XI mRNA [1]; 18.75 nM
  percent inhibition of human Factor XI mRNA: 55%
Human Factor XI mRNA [1]; 37.5 nM
  percent inhibition of human Factor XI mRNA: 64%
Human Factor XI mRNA [1]; 75 nM
  percent inhibition of human Factor XI mRNA: 66%
[2]
  Percent change in Body weight: −40%
Human Factor XI mRNA [3]; 625 nM
  percent inhibition of human Factor XI mRNA: 67%
Human Factor XI mRNA [3]; 1250 nM
  percent inhibition of human Factor XI mRNA: 82%
Human Factor XI mRNA [3]; 2500 nM
  percent inhibition of human Factor XI mRNA: 89%
Human Factor XI mRNA [3]; 5000 nM
  percent inhibition of human Factor XI mRNA: 92%
Human Factor XI mRNA [3]; 10000 nM
  percent inhibition of human Factor XI mRNA: 95%
Human Factor XI mRNA [3]; 20000 nM
  percent inhibition of human Factor XI mRNA: 97%
[4]
  urine protein/creatinine ratio, After: 11.4
  urine protein/creatinine ratio, Before: 1.0
Human Factor XI mRNA [5]; 9.375 nM
  percent inhibition of Factor XI mRNA, relative to untreated control cells: 8%
Human Factor XI mRNA [5]; 18.75 nM
  percent inhibition of Factor XI mRNA, relative to untreated control cells: 36%
Human Factor XI mRNA [5]; 37.5 nM
  percent inhibition of Factor XI mRNA, relative to untreated control cells: 58%
Human Factor XI mRNA [5]; 75 nM
  percent inhibition of Factor XI mRNA, relative to untreated control cells: 84%
Human Factor XI mRNA [6]; 41.15 nM
  percent inhibition of human Factor XI mRNA: 0%
Human Factor XI mRNA [6]; 123.457 nM
  percent inhibition of human Factor XI mRNA: 0%
Human Factor XI mRNA [6]; 370.37 nM
  percent inhibition of human Factor XI mRNA: 34%
Human Factor XI mRNA [6]; 1111.11 nM
  percent inhibition of human Factor XI mRNA: 61%
Human Factor XI mRNA [6]; 3333.33 nM
  percent inhibition of human Factor XI mRNA: 87%
Human Factor XI mRNA [6]; 10000 nM
  percent inhibition of human Factor XI mRNA: 92%
Human Factor XI mRNA [7]; 0.74 nM
  percent inhibition of human Factor XI mRNA: 13%
Human Factor XI mRNA [7]; 2.2 nM
  percent inhibition of human Factor XI mRNA: 24%
Human Factor XI mRNA [7]; 6.7 nM
  percent inhibition of human Factor XI mRNA: 34%
Human Factor XI mRNA [7]; 20 nM
  percent inhibition of human Factor XI mRNA: 67%
Human Factor XI mRNA [7]; 60 nM
  percent inhibition of human Factor XI mRNA: 69%
Human Factor XI mRNA [7]; 180 nM
  percent inhibition of human Factor XI mRNA: 71%
Human Factor XI mRNA [8]; 0.7 μM
  percent inhibition of Factor XI mRNA, relative to untreated control cells: 2%
Human Factor XI mRNA [8]; 2.2 μM
  percent inhibition of Factor XI mRNA, relative to untreated control cells: 47%
Human Factor XI mRNA [8]; 6.7 μM
  percent inhibition of Factor XI mRNA, relative to untreated control cells: 86%
Human Factor XI mRNA [8]; 20 μM
  percent inhibition of Factor XI mRNA, relative to untreated control cells: 82%
Human Factor XI mRNA [9]; 2.34 nM
  percent inhibition of human Factor XI mRNA, relative to untreated control cells: 15%
Human Factor XI mRNA [9]; 4.69 nM
  percent inhibition of human Factor XI mRNA, relative to untreated control cells: 22%
Human Factor XI mRNA [9]; 9.375 nM
  percent inhibition of human Factor XI mRNA, relative to untreated control cells: 32%
Human Factor XI mRNA [9]; 18.75 nM
  percent inhibition of human Factor XI mRNA, relative to untreated control cells: 54%
Human Factor XI mRNA [9]; 37.5 nM
  percent inhibition of human Factor XI mRNA, relative to untreated control cells: 76%
Human Factor XI mRNA [9]; 75 nM
  percent inhibition of human Factor XI mRNA, relative to untreated control cells: 90%

## 416892 (antisense GCCCTTCATGTCTAGGTCCA; 3-14-3 chimeric gapmer, wing sugar chemistry not given here, further chemistry not given here) [compound 416892]
Human Factor XI mRNA [1]; 2.3 nM
  percent inhibition of human Factor XI mRNA: 28%
Human Factor XI mRNA [1]; 4.7 nM
  percent inhibition of human Factor XI mRNA: 34%
Human Factor XI mRNA [1]; 9.4 nM
  percent inhibition of human Factor XI mRNA: 50%
Human Factor XI mRNA [1]; 18.75 nM
  percent inhibition of human Factor XI mRNA: 68%
Human Factor XI mRNA [1]; 37.5 nM
  percent inhibition of human Factor XI mRNA: 82%
Human Factor XI mRNA [1]; 75 nM
  percent inhibition of human Factor XI mRNA: 72%
[2]
  Percent change in Body weight: −39%
Human Factor XI mRNA [3]; 625 nM
  percent inhibition of human Factor XI mRNA: 66%
Human Factor XI mRNA [3]; 1250 nM
  percent inhibition of human Factor XI mRNA: 86%
Human Factor XI mRNA [3]; 2500 nM
  percent inhibition of human Factor XI mRNA: 96%
Human Factor XI mRNA [3]; 5000 nM
  percent inhibition of human Factor XI mRNA: 97%
Human Factor XI mRNA [3]; 10000 nM
  percent inhibition of human Factor XI mRNA: 100%
Human Factor XI mRNA [3]; 20000 nM
  percent inhibition of human Factor XI mRNA: 100%
[4]
  urine protein/creatinine ratio, After: 21.3
  urine protein/creatinine ratio, Before: 0.8
Human Factor XI mRNA [5]; 9.375 nM
  percent inhibition of Factor XI mRNA, relative to untreated control cells: 16%
Human Factor XI mRNA [5]; 18.75 nM
  percent inhibition of Factor XI mRNA, relative to untreated control cells: 50%
Human Factor XI mRNA [5]; 37.5 nM
  percent inhibition of Factor XI mRNA, relative to untreated control cells: 70%
Human Factor XI mRNA [5]; 75 nM
  percent inhibition of Factor XI mRNA, relative to untreated control cells: 85%
Human Factor XI mRNA [6]; 41.15 nM
  percent inhibition of human Factor XI mRNA: 9%
Human Factor XI mRNA [6]; 123.457 nM
  percent inhibition of human Factor XI mRNA: 12%
Human Factor XI mRNA [6]; 370.37 nM
  percent inhibition of human Factor XI mRNA: 28%
Human Factor XI mRNA [6]; 1111.11 nM
  percent inhibition of human Factor XI mRNA: 65%
Human Factor XI mRNA [6]; 3333.33 nM
  percent inhibition of human Factor XI mRNA: 89%
Human Factor XI mRNA [6]; 10000 nM
  percent inhibition of human Factor XI mRNA: 98%
Human Factor XI mRNA [7]; 0.74 nM
  percent inhibition of human Factor XI mRNA: 20%
Human Factor XI mRNA [7]; 2.2 nM
  percent inhibition of human Factor XI mRNA: 20%
Human Factor XI mRNA [7]; 6.7 nM
  percent inhibition of human Factor XI mRNA: 43%
Human Factor XI mRNA [7]; 20 nM
  percent inhibition of human Factor XI mRNA: 62%
Human Factor XI mRNA [7]; 60 nM
  percent inhibition of human Factor XI mRNA: 88%
Human Factor XI mRNA [7]; 180 nM
  percent inhibition of human Factor XI mRNA: 92%
Human Factor XI mRNA [8]; 0.7 μM
  percent inhibition of Factor XI mRNA, relative to untreated control cells: 14%
Human Factor XI mRNA [8]; 2.2 μM
  percent inhibition of Factor XI mRNA, relative to untreated control cells: 52%
Human Factor XI mRNA [8]; 6.7 μM
  percent inhibition of Factor XI mRNA, relative to untreated control cells: 82%
Human Factor XI mRNA [8]; 20 μM
  percent inhibition of Factor XI mRNA, relative to untreated control cells: 92%
Human Factor XI mRNA [9]; 2.34 nM
  percent inhibition of human Factor XI mRNA, relative to untreated control cells: 14%
Human Factor XI mRNA [9]; 4.69 nM
  percent inhibition of human Factor XI mRNA, relative to untreated control cells: 34%
Human Factor XI mRNA [9]; 9.375 nM
  percent inhibition of human Factor XI mRNA, relative to untreated control cells: 49%
Human Factor XI mRNA [9]; 18.75 nM
  percent inhibition of human Factor XI mRNA, relative to untreated control cells: 70%
Human Factor XI mRNA [9]; 37.5 nM
  percent inhibition of human Factor XI mRNA, relative to untreated control cells: 84%
Human Factor XI mRNA [9]; 75 nM
  percent inhibition of human Factor XI mRNA, relative to untreated control cells: 93%
